In brackets after ≈: the same amount, converted by molar mass. Read-outs that look alike come from different tables or passages of the source. *1 amine or outer side, *2 acyl side, *3 side chain or, on linkers, in order; H or OH if unused. Where a SMILES comes first, the peptide text is derived from it. Side-chain parts run from the residue outwards. [ ]: non-standard residue; d: D form. The star is where a group is joined. PEG12 = NCCOCCOCCOCCOCCOCCOCCOCCOCCOCCOCCOCCOCCC(=O)O; γGlu = O=C(O)[C@H](CCC(=O)[*:2])N[*:1]; Stearoyl = CCCCCCCCCCCCCCCCCC(=O)*; Palmitoyl = CCCCCCCCCCCCCCCC(=O)*; Nle = CCCC[C@H](N)C(=O)O; AEEA = NCCOCCOCC(=O)O; Aib = CC(C)(N)C(=O)O
Key:
[1] = biological target: T1, RXFP1 (Homo sapiens, UniProt Q9HBX9); test: OVCAR5 cAMP assay (HTRF), RXFP1 agonist activity; format: cell-based; conditions: for Emax: OVCAR-5, maximal cAMP relative to H2-relaxin maximum (100%), read-out: EMax, OVCAR 5 cells (cAMP)
T1 construct: OVCAR5 cells expressing endogenous RXFP1; endogenous in cells; host or cells: OVCAR5 cells
T1 sequence (Q9HBX9 1-757): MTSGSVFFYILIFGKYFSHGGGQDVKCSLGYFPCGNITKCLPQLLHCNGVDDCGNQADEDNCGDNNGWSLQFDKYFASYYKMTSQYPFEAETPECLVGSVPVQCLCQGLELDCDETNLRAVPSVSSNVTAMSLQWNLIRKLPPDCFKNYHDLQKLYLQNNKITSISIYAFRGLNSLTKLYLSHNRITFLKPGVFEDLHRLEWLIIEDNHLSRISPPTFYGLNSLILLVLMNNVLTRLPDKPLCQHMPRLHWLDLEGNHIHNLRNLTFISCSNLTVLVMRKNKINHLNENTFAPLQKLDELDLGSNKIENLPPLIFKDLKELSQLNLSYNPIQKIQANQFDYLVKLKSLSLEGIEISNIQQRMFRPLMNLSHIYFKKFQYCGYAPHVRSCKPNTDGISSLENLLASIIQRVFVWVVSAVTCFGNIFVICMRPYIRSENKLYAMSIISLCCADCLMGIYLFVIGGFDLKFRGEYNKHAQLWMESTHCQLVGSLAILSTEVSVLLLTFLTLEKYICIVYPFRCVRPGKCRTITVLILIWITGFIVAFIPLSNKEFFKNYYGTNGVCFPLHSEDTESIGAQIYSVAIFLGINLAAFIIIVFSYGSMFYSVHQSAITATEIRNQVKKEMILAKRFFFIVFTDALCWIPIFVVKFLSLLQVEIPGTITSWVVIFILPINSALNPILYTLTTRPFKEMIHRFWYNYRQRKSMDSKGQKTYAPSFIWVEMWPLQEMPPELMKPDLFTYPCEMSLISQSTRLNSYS
Summary of the method: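 cAMP accumulation readout: after 1 mM IBMX for 40 min, endogenous-RXFP1 OVCAR5 cells got rising peptide concentrations without FCS, 30 min, 37° C, then lysis with HTRF cAMP reagents. Nonlinear regression gave EC50; Emax expressed relative to H2-relaxin maximum, same occasion.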

[2] = Solubility testing of peptides in buffer; format: physicochemical
Procedure: Prior to the testing of solubility of a peptide batch, its purity (HPLC-UV) was determined.
Acetate Buffer 50 mM pH4.5: 0.75 g […], 3H2O (Sigma 57545)+0.35 ml CH3CO2H 100% solution dissolved in Millipore water, adjusted to pH with diluted (1:1) CH3CO2H and diluted to 250 ml with Millipore water.
In a 4 ml Ependorph vial, an accurately weighed sample of compound was diluted in study media to obtain target concentration of 2, 6 or 10 mg/ml of pure compound. The sample vials were shacked (rock 'roll shaker) for ˜19 h. 3004, Aliquots ( ) were filtered through a Millipore “Solvinert” plate (0.45 μm—PTFE hydrophilic).
pH was measured with a micro electrode
Waters Acquity UPLC System with DAD detector
Column: Waters Peptide Column CSH C18 (130 Å; 1.7 μm; 50*2.1 mm)
Column temperature: 60° C.
Full loop (about 5 μL)—overfill factor 5
Weak et Strong wash: H2O/ACN (75/25; V/V); Seal wash: H2O/IsOH (95/5; V/V). Mobile phase:
Solvent A: 0.05% TFA in H2O; Solvent B: 0.035% TFA in CH3CN
Gradient: from 0 to 12 min B=2% to 60%, from 12 to 14 min B=60% to 100%. Column washing 100% B 1 min, column equilibration 2% B 2.5 min.
UV detector: wavelength: 220 nm.

[3] = Pharmacokinetic (PK) determination after i.v. or s.c. administration to rats; format: in vivo, Sprague Dawley rats; conditions: Sprague Dawley, Rat PK; for C0 / half-life: iv, 1 mg/kg i.v.; for C0: extrapolated plasma concentration at t=0, read-out: C0; for half-life / Cmax / Tmax / bioavailability: plasma; for half-life: read-out: T½ (converted); for Cmax / Tmax: sc, 3 mg/kg s.c.; for bioavailability: subcutaneous, 3 mg/kg s.c. vs 1 mg/kg i.v., dose-corrected AUC ratio
Summary of the method: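 Non-compartmental analysis of plasma LC/MS data (protein precipitation, BLQ taken as zero) gave T½, C0 (i.v.), Cmax/Tmax (s.c.) and F% from dose-corrected AUCs. Dosing: 3 mg/kg s.c. or 1 mg/kg i.v. in PBS to Sprague Dawley rats, purity- and salt-corrected.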

[4] = acetate buffer, pH 4.5, read-out: Solubility Acetate buffer pH 4.5
[5] = phosphate buffer, pH 7.4, read-out: Solubility phosphate buffer pH 7.4

Row | Structure (SMILES) | EC50 ([1]; OVCAR5 cells, cAMP HTRF, read-out: EC50 (nM), OVCAR 5 cells (cAMP)) | Emax [1] | solubility ([2]; phosphate buffer 50 mM pH 7.4, target solubility 2.0 mg/ml, read-out: Solubility phosphate buffer pH 7.4) | C0 [3] | half-life [3] | Cmax [3] | Tmax [3] | bioavailability [3] | solubility [2, 4] | solubility [2, 5]
1 | CCCCCCCCCCCCCCCCCC(=O)N[C@@H](CCC(=O)N[C@@H](CCC(=O)N[C@@H](CCC(=O)NCCCC[C@H](NC(=O)COCCOCCNC(=O)COCCOCCNC(=O)COCCOCCNC(=O)[C@H](CCCCNC(C)=O)NC(=O)[C@H](CCCCN)NC(=O)[C@H](CCCNC(=N)N)NC(=O)C(C)(C)NC(=O)[C@H](CO)NC(=O)[C@H](Cc1c[nH]c2ccccc12)NC(=O)[C@@H](NC(=O)[C@H](CO)NC(=O)[C@H](CCCC)NC(=O)CNC(=O)[C@H](CCC(=O)O)NC(=O)C(C)(C)NC(=O)C(C)(C)NC(=O)[C@@H](NC(=O)[C@H](CCCCNC(C)=O)NC(=O)[C@H](C)NC(=O)[C@H](CCCNC(=N)N)NC(=O)[C@@H](NC(=O)[C@H](CCCCN)NC(=O)[C@H](CCC(=O)O)NC(=O)[C@H](CCCNC(=N)N)NC(=O)CNC(=O)[C@H](CCC(=O)O)NC(=O)[C@H](CC(C)C)NC(C)=O)C(C)C)[C@@H](C)CC)[C@@H](C)O)C(N)=O)C(=O)O)C(=O)O)C(=O)O [compound 14] (Ac-LEGREKVRAK(Ac)I[Aib][Aib]EG[Nle]STWS[Aib]RKK(Ac)[AEEA][AEEA][AEEA]K([γGlu-γGlu-γGlu-Stearoyl])-NH2) | 0.04 nM | 88% | > 2100 µg/mL | 4000 nM | 3.4 h | 1500 nM | 6 h | 93% |  | 
2 | CCCCCCCCCCCCCCCCCC(=O)N[C@@H](CCC(=O)N[C@@H](CCC(=O)N[C@@H](CCC(=O)NCCCC[C@H](NC(=O)CCOCCOCCOCCOCCOCCOCCOCCOCCOCCOCCOCCOCCNC(=O)[C@H](CCCCN)NC(=O)[C@H](CCCNC(=N)N)NC(=O)C(C)(C)NC(=O)[C@H](CO)NC(=O)[C@H](Cc1c[nH]c2ccccc12)NC(=O)[C@@H](NC(=O)[C@H](CO)NC(=O)[C@H](CCCC)NC(=O)CNC(=O)[C@H](CCC(=O)O)NC(=O)C(C)(C)NC(=O)C(C)(C)NC(=O)[C@@H](NC(=O)[C@H](CCC(N)=O)NC(=O)[C@H](C)NC(=O)[C@H](CCCNC(=N)N)NC(=O)[C@@H](NC(=O)[C@H](CCCCN)NC(=O)[C@H](CCC(=O)O)NC(=O)[C@H](CCCNC(=N)N)NC(=O)CNC(=O)[C@H](CCC(=O)O)NC(=O)[C@H](CC(C)C)NC(C)=O)C(C)C)[C@@H](C)CC)[C@@H](C)O)C(N)=O)C(=O)O)C(=O)O)C(=O)O [compound 30] (Ac-LEGREKVRAQI[Aib][Aib]EG[Nle]STWS[Aib]RK[PEG12]K([γGlu-γGlu-γGlu-Stearoyl])-NH2) |  | 89% |  | 2200 nM | 4.8 h | 600 nM | 4 h | 105% | 7000 µg/mL (≈ 1740 µM) | 7000 µg/mL (≈ 1740 µM)
3 | CCCCCCCCCCCCCCCC(=O)N[C@@H](CCC(=O)N[C@@H](CCC(=O)N[C@@H](CCC(=O)NCCCC[C@H](NC(=O)CCOCCOCCOCCOCCOCCOCCOCCOCCOCCOCCOCCOCCNC(=O)[C@H](CCCCN)NC(=O)[C@H](CCCNC(=N)N)NC(=O)C(C)(C)NC(=O)[C@H](CO)NC(=O)[C@H](Cc1c[nH]c2ccccc12)NC(=O)[C@@H](NC(=O)[C@H](CO)NC(=O)[C@H](CCSC)NC(=O)CNC(=O)[C@H](CCC(=O)O)NC(=O)C(C)(C)NC(=O)C(C)(C)NC(=O)[C@@H](NC(=O)[C@H](CCC(N)=O)NC(=O)[C@H](C)NC(=O)[C@H](CCCNC(=N)N)NC(=O)[C@@H](NC(=O)[C@H](CCCCN)NC(=O)[C@H](CCC(=O)O)NC(=O)[C@H](CCCNC(=N)N)NC(=O)CNC(=O)[C@H](CCC(=O)O)NC(=O)[C@H](CC(C)C)NC(C)=O)C(C)C)[C@@H](C)CC)[C@@H](C)O)C(N)=O)C(=O)O)C(=O)O)C(=O)O [compound 23] (Ac-LEGREKVRAQI[Aib][Aib]EGMSTWS[Aib]RK[PEG12]K([γGlu-γGlu-γGlu-Palmitoyl])-NH2) |  | 89% |  | 2900 nM | 8.96 h | 1700 nM | 6 h | 84% | 7000 µg/mL (≈ 1740 µM) | 7000 µg/mL (≈ 1740 µM)

— US10988523B2, “Modified lipidated Relaxin B chain peptides and their therapeutic use” (Sanofi, priority 2018, dated 2021)
